Common to all, as to format: cell-based
Assay [1] deals with IL-6 (THP-1 human monocyte cell line). The assay is described as follows: IL-6 inhibition in LPS-stimulated THP-1 cells (HTRF). To be noted: for EC50: IL-6 inhibition, LPS-stimulated THP-1 cells, HTRF; for inhibition at 10 µM: THP-1, read-out: percentage in parentheses beside EC50 >10 (IL-6 inhibition). Put shortly: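 After 24 h in 1% FBS medium, cells had compound 2 h before 500 ng/mL LPS, then 22 h more at 37 °C. DMSO-normalized HTRF signal (665/620 nm ratio, anti-IL-6 antibody pair) was fitted with a variable-slope four-parameter model to give EC50.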

For assay [2], the system named is Wnt activity (Sp5-Luc reporter, SW480 colon carcinoma cells). The assay is described as follows: Wnt activity screening assay, Sp5-Luc reporter gene in SW480 cells. To be noted: Homo sapiens; for EC50: Sp5-Luc reporter, SW480 cells, overnight incubation; for inhibition at 10 µM: SW480, read-out: percent inhibition at 10 μM. Put shortly:
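Read-out is BrightGlo luminescence, normalized to DMSO-treated cells and fitted by four-parameter variable-slope regression for EC50. Reporter cells: SW480 colon carcinoma carrying a stable lentiviral Sp5-Luc construct with eight TCF/LEF sites, seeded 4,000/well in 1% FBS, incubated overnight at 37° C.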

Assay [3] deals with primary human mesenchymal stem cells (hMSCs). The assay is described as follows: Induction of chondrogenesis in human mesenchymal stem cells (nodule area, Rhodamine B/Nile Red). Particulars: hMSC chondrogenesis; for EC50: concentration required to induce 50% levels of chondrogenesis of TGF-β3 positive control, read-out: Conc (nM) of 50% TGF-β3 activity; for Emax: relative to TGF-β3 (10 ng/mL) positive control, read-out: Max. Activity as % TGF-β3 activity. From the text: Representative compounds were screened using primary human mesenchymal stem cells (hMSCs) to determine their ability to induce chondrogenesis (process by which cartilage is developed).
Primary human mesenchymal stem cells (hMSCs) were purchased from Lonza (Walkersville, Md.) and expanded in Mesenchymal Stem Cell Growth Media (Lonza). Cells between passage 3 and 6 were used for the experiments.
Area of nodules in each well was normalized to the average of 3 DMSO treated wells on the same plate using Excel (Microsoft Inc.). The normalized averages (fold change over DMSO) of 2 or 3 replicate wells for each compound concentration were calculated. Due to solubility limitations of some of the compounds, curve fitting was incomplete leading to inaccurate EC50 determinations.
Using TGF-β3 as a positive control, the concentration of representative compounds required to induce 50% levels of chondrogenesis is reported. In addition, the maximum activity of each compound and the respective dose that each compound reached maximum chondrogenesis activity is reported.

The test system of assay [4] is primary human fibroblasts derived from IPF patients (LL29 cells) treated with TGF-β1. The assay is described as follows: Inhibition of the fibrotic process: αSMA staining in TGF-β1 treated LL29 fibroblasts. To be noted: Fibroblast; for EC50: 96 h, LL29 cells, TGF-β1 20 ng/mL, 4 days, % αSMA positive cells; for inhibition at 10 µM: read-out: percent inhibition at 10 μM. Put shortly: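 Read-out after 4-day incubation: αSMA staining with 1 μM SYTOX green nuclear counterstain (30 min, room temperature). Cells were LL29 primary fibroblasts from IPF patients, in 1% FBS F12, exposed to TGF-β1 with test compound, referenced to TGF-β1/DMSO control wells.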

The next assay deals with SW480 colon cancer cells. The assay is described as follows: Cell viability assay (CellTiter-Blue), SW480 cells, four days. Particulars: Homo sapiens; for EC50: 96 h, SW480 cell viability, four days, CellTiter-Blue; for inhibition at 10 µM: SW480, read-out: percent inhibition at 10 μM. Summed up: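 Fluorescence from resazurin reduced to resorufin by metabolically active cells was the read-out, taken after ~3 h with CellTiter-Blue.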

On to `CCC(=O)Nc1cncc(-c2ccc3[nH]nc(-c4cc5c(-c6cccc(F)c6)ccnc5[nH]4)c3c2)c1` [Compound 1, N-(5-(3-(4-(3-Fluorophenyl)-1H-pyrrolo[2,3-b]pyridin-2-yl)-1H-indazol-5-yl)pyridin-3-yl)propionamide], for which the EC50 in assay [1] came to 6140 nM; in assay [2], 13 nM; in assay [3], 100 nM; in assay [4] it was 141 nM; in the assay on SW480 colon cancer cells, 1030 nM. Besides, the Emax in assay [3] is 167%.

`CCNCc1cncc(-c2ccc3[nH]nc(-c4cc5c(-c6cccc(F)c6)ccnc5[nH]4)c3c2)c1` [Compound 6, N-((5-(3-(4-(3-Fluorophenyl)-1H-pyrrolo[2,3-b]pyridin-2-yl)-1H-indazol-5-yl)pyridin-3-yl)methyl)ethanamine]: the EC50 in assay [1] worked out at 3970 nM; in assay [2], 1680 nM; in assay [3], 30 nM; in assay [4], 1200 nM; in the assay with SW480 colon cancer cells it was 561 nM. In assay [3], the Emax was 59%.

For the compound `CN(C)Cc1cncc(-c2ccc3[nH]nc(-c4cc5c(-c6cccc(F)c6)ccnc5[nH]4)c3c2)c1` [Compound 13, 1-(5-(3-(4-(3-Fluorophenyl)-1H-pyrrolo[2,3-b]pyridin-2-yl)-1H-indazol-5-yl)pyridin-3-yl)-N,N-dimethylmethanamine], the EC50 was above 10000 nM in assay [1], 1180 nM in assay [2], 1190 nM in assay [4] and 2920 nM with SW480 colon cancer cells. In assay [1], the inhibition at 10 µM was found to be 55.3%. Also, the Emax in assay [3] is 48%.

For `Fc1ccc(-c2ccnc3[nH]c(-c4n[nH]c5ccc(-c6cncc(CN7CCCC7)c6)cc45)cc23)cc1` [Compound 42, 3-(4-(4-Fluorophenyl)-1H-pyrrolo[2,3-b]pyridin-2-yl)-5-(5-(pyrrolidin-1-ylmethyl)pyridin-3-yl)-1H-indazole], the EC50 in assay [1] is above 10000 nM; in assay [2], above 10000 nM; in assay [4] it was 2930 nM; in the assay with SW480 colon cancer cells, 1510 nM. Moreover, the inhibition at 10 µM in assay [1] worked out at 40.2%; in assay [2] it was 14.8%. In addition, in assay [3], the Emax worked out at 22%.

`Fc1ccc(-c2ccnc3[nH]c(-c4n[nH]c5ccc(-c6cncnc6)cc45)cc23)cc1` [Compound 55, 3-(4-(4-Fluorophenyl)-1H-pyrrolo[2,3-b]pyridin-2-yl)-5-(pyrimidin-5-yl)-1H-indazole]: the EC50 in assay [1] is above 10000 nM; in assay [2], above 10000 nM; in assay [3], 2700 nM; in assay [4] it was above 10000 nM; in the assay with SW480 colon cancer cells it was above 10000 nM. For the same compound, the inhibition at 10 µM turned out to be 25.6% in assay [1], 11.7% in assay [2], 7.3% in assay [4] and 17.3% with SW480 colon cancer cells. The Emax in assay [3] came out at 82%.

With `Nc1cncc(-c2ccc3[nH]nc(-c4cc5c(-c6ccccc6F)ccnc5[nH]4)c3c2)c1` [Compound 59, 5-(3-(4-(2-Fluorophenyl)-1H-pyrrolo[2,3-b]pyridin-2-yl)-1H-indazol-5-yl) pyridin-3-amine], the EC50 in assay [1] is above 10000 nM; in assay [2], 131 nM; in assay [4] it was 592 nM; in the assay on SW480 colon cancer cells, 399 nM. Further, the inhibition at 10 µM in assay [1] is 31.6%. The Emax in assay [3] was determined as 24%.

Consider `c1cc(-c2ccnc3[nH]c(-c4n[nH]c5ccc(-c6cn[nH]c6)cc45)cc23)ccn1` [Compound 571, 5-(1H-Pyrazol-4-yl)-3-(4-(pyridin-4-yl)-1H-pyrrolo[2,3-b]pyridin-2-yl)-1H-indazole], for which the EC50 (in assay [1]; in assay [2]; in assay [4]; in the assay on SW480 colon cancer cells) was above 10000 nM throughout. Moreover, the inhibition at 10 µM in assay [1] was 37%; in assay [2], 37%; in assay [4], 28.3%; with SW480 colon cancer cells, 23.8%.

In the case of `Cc1ncc(-c2ccc3[nH]nc(-c4cc5c(-c6ccncc6)ccnc5[nH]4)c3c2)n1C` [Compound 573, 5-(1,2-Dimethyl-1H-imidazol-5-yl)-3-(4-(pyridin-4-yl)-1H-pyrrolo[2,3-b]pyridin-2-yl)-1H-indazole], the EC50 is above 10000 nM in assay [1], above 10000 nM in assay [2], above 10000 nM in assay [4] and 1150 nM with SW480 colon cancer cells. The inhibition at 10 µM in assay [1] came to 26.4%; in assay [2] it was 8%; in assay [4], 113%.

With `c1cc(N2CCCCC2)c2cc(-c3n[nH]c4ccc(-c5cn[nH]c5)cc34)[nH]c2n1` [Compound 603, 3-(4-(Piperidin-1-yl)-1H-pyrrolo[2,3-b]pyridin-2-yl)-5-(1H-pyrazol-4-yl)-1H-indazole], the EC50 was 663 nM in assay [1], 181 nM in assay [2], 304 nM in assay [4] and 296 nM in the assay with SW480 colon cancer cells.

As for `NC1CN(c2cncc(-c3ccc4[nH]nc(-c5cc6c(N7CCCCC7)ccnc6[nH]5)c4c3)n2)C1` [Compound 606, 1-(6-(3-(4-(Piperidin-1-yl)-1H-pyrrolo[2,3-b]pyridin-2-yl)-1H-indazol-5-yl)pyrazin-2-yl)azetidin-3-amine], the EC50 in assay [1] was above 10000 nM; in assay [2], above 10000 nM; in assay [4] it was 3620 nM; with SW480 colon cancer cells it was above 10000 nM. Further, the inhibition at 10 µM was 39.1% in assay [1], 20.2% in assay [2] and 10.2% in the assay with SW480 colon cancer cells.

For the compound `c1cc(N2CCCCC2)c2cc(-c3n[nH]c4ccc(-c5cncc(OC6CCCCC6)c5)cc34)[nH]c2n1` [Compound 607, 5-(5-(Cyclohexyloxy)pyridin-3-yl)-3-(4-(piperidin-1-yl)-1H-pyrrolo[2,3-b]pyridin-2-yl)-1H-indazole], the EC50 was above 10000 nM in assay [1], above 10000 nM in assay [2], 7100 nM in assay [4] and 8580 nM with SW480 colon cancer cells. The inhibition at 10 µM in assay [1] came out at 20%; in assay [2] it was 28.4%.

With `CN1CCN(c2ccnc3[nH]c(-c4n[nH]c5ccc(-c6cncc(OCc7ccccc7)c6)cc45)cc23)CC1` [Compound 646, 5-(5-(Benzyloxy)pyridin-3-yl)-3-(4-(4-methylpiperazin-1-yl)-1H-pyrrolo[2,3-b]pyridin-2-yl)-1H-indazole], the EC50 was above 10000 nM in assay [1], 4880 nM in assay [2], 316 nM in assay [4] and 4820 nM in the assay with SW480 colon cancer cells. Further, the inhibition at 10 µM in assay [1] was determined as 37.9%.

Consider `COc1cncc(-c2ccc3[nH]nc(-c4cc5c(-c6ccsc6)ccnc5[nH]4)c3c2)c1` [Compound 676, 5-(5-Methoxypyridin-3-yl)-3-(4-(thiophen-3-yl)-1H-pyrrolo[2,3-b]pyridin-2-yl)-1H-indazole], for which the EC50 in assay [1] was above 10000 nM; in assay [2], above 10000 nM; in assay [4], 7780 nM; in the assay with SW480 colon cancer cells, above 10000 nM. Moreover, the inhibition at 10 µM turned out to be 38.4% in assay [1], 21% in assay [2] and 0% in the assay on SW480 colon cancer cells.

Consider `c1cnc(-c2ccc3[nH]nc(-c4cc5c(-c6ccoc6)ccnc5[nH]4)c3c2)cn1` [Compound 696, 3-(4-(Furan-3-yl)-1H-pyrrolo[2,3-b]pyridin-2-yl)-5-(pyrazin-2-yl)-1H-indazole], for which the EC50 was above 10000 nM in assay [1], 4150 nM in assay [2], 2480 nM in assay [4] and 3990 nM in the assay on SW480 colon cancer cells. Further, in assay [1], the inhibition at 10 µM was determined as 43.3%.

For `c1csc(-c2ccnc3[nH]c(-c4n[nH]c5ccc(-c6cnccn6)cc45)cc23)c1` [Compound 712, 5-(Pyrazin-2-yl)-3-(4-(thiophen-2-yl)-1H-pyrrolo[2,3-b]pyridin-2-yl)-1H-indazole], the EC50 in assay [1] was above 10000 nM; in assay [2] it was above 10000 nM; in assay [4], 1400 nM; in the assay with SW480 colon cancer cells, above 10000 nM. For the same compound, the inhibition at 10 µM in assay [1] worked out at 36.3%; in assay [2], 5.6%; with SW480 colon cancer cells, 13.9%.

The record behind these values is patent US10350199B2, “3-(1h-pyrrolo[2,3-b]pyridin-2-yl)-1h-indazoles and therapeutic uses thereof” (Samumed, LLC, priority 2015, dated 2019).
